Results reported in patent publication US20130315843A1, “COMPOSITION FOR REDUCTION OF TRPA1 AND TRPV1 SENSATIONS” (priority 2012, published 2013).
Structures can show the parent of a compound that is named as a salt.

biological target: human TRPA1 (Homo sapiens, UniProt O75762); assay: FLIPR Ca2+ assay, reduction of L-Menthol activation of TRPA1; conditions: 100 μM antagonist vs 1 mM L-Menthol
Sequence (O75762 whole entry): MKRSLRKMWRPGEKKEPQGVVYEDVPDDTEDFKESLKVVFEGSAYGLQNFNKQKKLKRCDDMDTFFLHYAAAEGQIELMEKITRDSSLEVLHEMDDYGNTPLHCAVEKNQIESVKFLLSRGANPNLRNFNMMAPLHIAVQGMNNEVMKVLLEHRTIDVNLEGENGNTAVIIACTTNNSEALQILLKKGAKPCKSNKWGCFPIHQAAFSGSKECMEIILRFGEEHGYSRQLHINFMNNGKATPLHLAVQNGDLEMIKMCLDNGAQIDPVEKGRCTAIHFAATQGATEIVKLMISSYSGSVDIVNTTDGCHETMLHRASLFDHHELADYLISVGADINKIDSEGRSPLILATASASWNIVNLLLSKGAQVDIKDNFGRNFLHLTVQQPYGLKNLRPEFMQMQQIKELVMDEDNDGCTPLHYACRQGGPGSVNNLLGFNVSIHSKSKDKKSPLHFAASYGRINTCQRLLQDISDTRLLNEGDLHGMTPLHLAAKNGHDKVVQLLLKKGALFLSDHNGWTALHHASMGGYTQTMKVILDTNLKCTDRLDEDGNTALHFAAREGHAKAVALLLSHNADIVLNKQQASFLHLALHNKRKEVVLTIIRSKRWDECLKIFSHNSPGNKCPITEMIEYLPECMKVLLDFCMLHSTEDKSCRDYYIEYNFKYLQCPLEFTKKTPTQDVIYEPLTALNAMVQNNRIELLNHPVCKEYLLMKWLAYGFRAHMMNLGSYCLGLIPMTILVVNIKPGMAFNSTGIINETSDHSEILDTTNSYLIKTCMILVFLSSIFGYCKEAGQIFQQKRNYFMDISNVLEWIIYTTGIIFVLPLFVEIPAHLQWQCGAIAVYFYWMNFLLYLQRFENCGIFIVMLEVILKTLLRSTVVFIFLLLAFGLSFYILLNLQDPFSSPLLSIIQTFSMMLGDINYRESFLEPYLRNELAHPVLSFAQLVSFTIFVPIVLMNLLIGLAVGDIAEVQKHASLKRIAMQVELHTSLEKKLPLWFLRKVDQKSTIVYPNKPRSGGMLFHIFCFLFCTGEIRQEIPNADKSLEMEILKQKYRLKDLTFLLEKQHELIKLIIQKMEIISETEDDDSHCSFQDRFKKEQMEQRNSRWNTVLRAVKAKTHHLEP

Row | Compound | Block of L-Menthol activation of TRPA1
1 | O=C(C=Cc1ccccc1)OCC=Cc1ccccc1 [3-phenyl-2-propen-1-yl 3-phenylacrylate] | BLOCK ONLY MENTHOL/TRPA1
2 | COc1ccc(COC=O)cc1 [4-methoxybenzyl formate] | BLOCK ONLY MENTHOL/TRPA1
3 | CC(C)CC(=O)Cc1ccccc1 [4-methyl-1-phenyl-2-pentanone] | BLOCK ONLY MENTHOL/TRPA1
4 | COc1cc(C)cc(OC)c1O [4-methyl-2,6-dimethoxyphenol] | BLOCK ONLY MENTHOL/TRPA1
5 | C=Cc1scnc1C [4-methyl-5-vinylthiazole] | BLOCK ONLY MENTHOL/TRPA1
6 | CC(=O)C(=O)CC(C)C [5-methyl-2,3-hexanedione] | BLOCK ONLY MENTHOL/TRPA1
7 | CC1(C)C2CC[C@@]1(C)C(=O)C2 [(1r)-(+)-camphor] | BLOCK ONLY MENTHOL/TRPA1
8 | O=C1O[C@H]([C@@H](O)CO)C([O-])=C1O.[Na+] [(+)-Sodium L-ascorbate] | BLOCK ONLY MENTHOL/TRPA1
9 | C/C=C(/C)C(=O)OCC(C)C [Angelic Acid Isobutyl Ester] | BLOCK ONLY MENTHOL/TRPA1
10 | CC(=O)CCC=C(C)CCC=C(C)CCC=C(C)C [Farnesylacetone] | BLOCK ONLY MENTHOL/TRPA1
11 | CCCCCCCC/C=C\CCCCCCCC(=O)O [Oleic acid] | BLOCK ONLY MENTHOL/TRPA1
12 | CCCCCCCCCCCCC(=O)O [Tridecanoic acid] | BLOCK ONLY MENTHOL/TRPA1
13 | C=CCOC(=O)CCCCCCC [allyl caprylate] | BLOCK ONLY MENTHOL/TRPA1
14 | O=COCc1ccccc1 [benzyl formate] | BLOCK ONLY MENTHOL/TRPA1
15 | C=C1CC/C=C(\C)CC[C@@H]2[C@@H]1CC2(C)C [beta-caryophyllene] | BLOCK ONLY MENTHOL/TRPA1
16 | O=C(O)c1ccc(O)cc1O [beta-resorcylic acid] | BLOCK ONLY MENTHOL/TRPA1
17 | CC/C=C\CCOC(=O)CCC [cis-3-hexenyl butyrate] | BLOCK ONLY MENTHOL/TRPA1
18 | CCCC/C=C\CCO [cis-3-octen-1-ol] | BLOCK ONLY MENTHOL/TRPA1
19 | CC(C)=CCCC(C)CCOC=O (stereo not shown) [citronellyl formate] | BLOCK ONLY MENTHOL/TRPA1
20 | C=CCSCC=C [diallyl sulfide] | BLOCK ONLY MENTHOL/TRPA1
21 | CCCCOC(=O)CCCCCCCCC(=O)OCCCC [dibutyl sebacate] | BLOCK ONLY MENTHOL/TRPA1
22 | CCOC(=O)C(=O)CC(=O)CC [ethyl 2,4-dioxohexanoate] | BLOCK ONLY MENTHOL/TRPA1
23 | CCOC(=O)C(Cc1ccccc1)C(C)=O (stereo not shown) [ethyl 2-benzylacetoacetate] | BLOCK ONLY MENTHOL/TRPA1
24 | CCOC(=O)CCc1ccco1 [ethyl 3-(2-furyl)propionate] | BLOCK ONLY MENTHOL/TRPA1
25 | CCCCC/C=C/C=C/C=O [trans,trans-2,4-Decadienal] | BLOCK ONLY MENTHOL/TRPA1
26 | O=C/C=C/c1ccccc1 [trans-Cinnamaldehyde] | BLOCK ONLY MENTHOL/TRPA1

biological target: human TRPV1 (Homo sapiens, UniProt Q8NER1); assay: FLIPR Ca2+ assay, reduction of L-Menthol activation of TRPV1; conditions: antagonist 100 μM against 1 mM L-Menthol
Sequence (Q8NER1 whole entry): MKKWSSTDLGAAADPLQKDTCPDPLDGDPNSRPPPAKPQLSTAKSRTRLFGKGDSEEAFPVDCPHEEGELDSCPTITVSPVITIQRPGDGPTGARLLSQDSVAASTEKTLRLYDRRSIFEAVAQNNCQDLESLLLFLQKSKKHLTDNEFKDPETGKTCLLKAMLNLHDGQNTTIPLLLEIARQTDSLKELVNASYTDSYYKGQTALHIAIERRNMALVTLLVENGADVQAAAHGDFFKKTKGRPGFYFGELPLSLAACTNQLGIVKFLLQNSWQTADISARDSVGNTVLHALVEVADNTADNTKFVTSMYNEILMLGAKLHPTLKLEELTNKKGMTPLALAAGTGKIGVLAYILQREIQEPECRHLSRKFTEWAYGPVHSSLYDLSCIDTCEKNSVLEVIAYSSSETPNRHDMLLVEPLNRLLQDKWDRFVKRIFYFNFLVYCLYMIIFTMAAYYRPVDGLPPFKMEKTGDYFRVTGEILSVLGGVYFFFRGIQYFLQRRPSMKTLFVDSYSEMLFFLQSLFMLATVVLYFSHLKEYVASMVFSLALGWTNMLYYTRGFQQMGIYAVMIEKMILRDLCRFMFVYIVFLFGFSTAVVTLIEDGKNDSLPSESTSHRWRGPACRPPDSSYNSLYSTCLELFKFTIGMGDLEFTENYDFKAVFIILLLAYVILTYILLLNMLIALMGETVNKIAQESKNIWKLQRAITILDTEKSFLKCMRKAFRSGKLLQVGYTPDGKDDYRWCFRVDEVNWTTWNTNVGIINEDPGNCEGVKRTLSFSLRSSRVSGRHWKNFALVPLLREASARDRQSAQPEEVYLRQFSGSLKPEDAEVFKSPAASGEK

Row | Compound | Average Ca2+ Counts [Counts] | % Reduction of L-Menthol TRPV1 Activation [%]
27 | O=C(C=Cc1ccccc1)OCC=Cc1ccccc1 [3-phenyl-2-propen-1-yl 3-phenylacrylate] | 3377.0 | 
28 | COc1ccc(COC=O)cc1 [4-methoxybenzyl formate] | 1399.0 | 
29 | CC(C)CC(=O)Cc1ccccc1 [4-methyl-1-phenyl-2-pentanone] | 2707.0 | 
30 | COc1cc(C)cc(OC)c1O [4-methyl-2,6-dimethoxyphenol] | 1292.3 | 
31 | C=Cc1scnc1C [4-methyl-5-vinylthiazole] | 1227.7 | 
32 | CC(=O)C(=O)CC(C)C [5-methyl-2,3-hexanedione] | 2968.5 | 
33 | CC1(C)C2CC[C@@]1(C)C(=O)C2 [(1r)-(+)-camphor] | 2807.0 | 
34 | C=CCOC(=O)CCCCCCC [allyl caprylate] | 2572.0 | 
35 | O=COCc1ccccc1 [benzyl formate] | 2923.5 | 
36 | C=C1CC/C=C(\C)CC[C@@H]2[C@@H]1CC2(C)C [beta-caryophyllene] | 2744.5 | 32.0
37 | O=C(O)c1ccc(O)cc1O [beta-resorcylic acid] | 1317.3 | 
38 | CC/C=C\CCOC(=O)CCC [cis-3-hexenyl butyrate] | 2987.5 | 
39 | CCCC/C=C\CCO [cis-3-octen-1-ol] | 1424.7 | 
40 | CC(C)=CCCC(C)CCOC=O (stereo not shown) [citronellyl formate] | 1097.0 | 
41 | C=CCSCC=C [diallyl sulfide] | 1293.3 | 
42 | CCCCOC(=O)CCCCCCCCC(=O)OCCCC [dibutyl sebacate] | 1398.0 | 
43 | CCOC(=O)C(=O)CC(=O)CC [ethyl 2,4-dioxohexanoate] | 1000.3 | 
44 | CCOC(=O)C(Cc1ccccc1)C(C)=O (stereo not shown) [ethyl 2-benzylacetoacetate] | 1548.3 | 
45 | CCOC(=O)CCc1ccco1 [ethyl 3-(2-furyl)propionate] | 4446.5 | 

same assay, conditions: read-out: % Reduction of L-Menthol TRPV1 Activation

Row | Compound | inhibition at 100 µM [%]
46 | O=C(C=Cc1ccccc1)OCC=Cc1ccccc1 [3-phenyl-2-propen-1-yl 3-phenylacrylate] | 47.2
47 | COc1ccc(COC=O)cc1 [4-methoxybenzyl formate] | 27.2
48 | CC(C)CC(=O)Cc1ccccc1 [4-methyl-1-phenyl-2-pentanone] | 32.9
49 | COc1cc(C)cc(OC)c1O [4-methyl-2,6-dimethoxyphenol] | 32.1
50 | C=Cc1scnc1C [4-methyl-5-vinylthiazole] | 35.1
51 | CC(=O)C(=O)CC(C)C [5-methyl-2,3-hexanedione] | 26.4
52 | CC1(C)C2CC[C@@]1(C)C(=O)C2 [(1r)-(+)-camphor] | 30.5
53 | C=CCOC(=O)CCCCCCC [allyl caprylate] | 44.6
54 | O=COCc1ccccc1 [benzyl formate] | 27.6
55 | O=C(O)c1ccc(O)cc1O [beta-resorcylic acid] | 31
56 | CC/C=C\CCOC(=O)CCC [cis-3-hexenyl butyrate] | 26
57 | CCCC/C=C\CCO [cis-3-octen-1-ol] | 26
58 | CC(C)=CCCC(C)CCOC=O (stereo not shown) [citronellyl formate] | 41.2
59 | C=CCSCC=C [diallyl sulfide] | 32.1
60 | CCCCOC(=O)CCCCCCCCC(=O)OCCCC [dibutyl sebacate] | 27.3
61 | CCOC(=O)C(=O)CC(=O)CC [ethyl 2,4-dioxohexanoate] | 45.7
62 | CCOC(=O)C(Cc1ccccc1)C(C)=O (stereo not shown) [ethyl 2-benzylacetoacetate] | 20.3
63 | CCOC(=O)CCc1ccco1 [ethyl 3-(2-furyl)propionate] | 30.5
